pIC50: −log10 of the molar value. Converted amounts (≈) assume the structure as drawn. Like-named read-outs stand apart in the source and are kept apart here.
Columns and labels:
CCD 841 CoN = experiment: MTT viability assay, normal colon epithelial cells; assay type: cell-based, human; conditions: Homo sapiens, CCD-841CoN; normal colon epithelial cells, 24 h, reference drug; read-out: IC50
From the text: (§1) Cell lines of different origins were used in the study and grouped as follows: prostate panel (human prostate carcinomas: DU145, derived from metastatic site: brain; grade IV PC3, derived from metastatic site: bone; LNCaP, derived from the metastatic site: lymph node; prostate epithelial, PNT2), colon panel (colorectal adenocarcinomas: HT29, originating from a primary tumor; Duke’s type C DLD-1, with the potential to lymph node metastasis; highly metastatic HCT116; colon epithelial cells CCD 841 CoN), thyroid panel (follicular thyroid carcinoma FTC133, anaplastic thyroid carcinoma 8505C, papillary thyroid carcinoma TPC-1, normal thyroid follicular epithelial Nthy-ori 3–1), breast panel (ER-positive breast adenocarcinoma MCF7, ER-negative breast adenocarcinoma MDA-MB-231, breast epithelial MCF10A), brain panel (neuroblastoma SH-SY5Y, glioblastoma U-87 MG, murine astrocytes C8D1A). All cell lines were purchased from Merck (Darmstadt, Germany).
(§2) Cells were grown under standard conditions (37 °C, 5% CO2) and culture media (DMEM/F12 for PNT2, PC3, FTC133, 8505 C, MDA-MB-231, TPC-1; DMEM Low Glucose for DU145; DMEM High Glucose for HCT116, DLD-1, SH-SY5Y, U87MG, C8D1A; MEM with NEAA for MCF7; MEM for CCD 841 CoN; McCoy’s for HT29; RPMI1640 with sodium pyruvate for LNCaP; DMEM/F12 with 20 ng/mL epidermal growth factor (EGF), 10 μg/mL insulin, 0.5 μg/mL hydrocortisone, 100 ng/mL cholera toxin) for MCF10A), supplemented with 10% fetal bovine serum (FBS) or 5% donor horse serum for MCF10A, and 1% antibiotics solution (10,000 U penicillin and 10 mg streptomycin/mL). The tested substances were prepared as 10 mg/mL stock solutions in DMSO and further diluted in the culture media to the working concentrations. Cells were treated with UA enantiomers at the concentration range of 0–50 µg/mL. The influence of DMSO on cell viability was also examined, with the final concentration […], and no toxic effect was noted.
(§3) The cells were seeded onto 96-well plates at a density of 1.5 × 10^4 cells/well. After 24 h UA enantiomers were added. Cell viability was determined after 24, 48, and 72 h by the MTT assay, as described previously. Doxorubicin was used as a reference cytostatic drug. All analyses were performed in triplicate; cell viability was expressed as % of control, untreated cells (mean ± SD), and IC50 values (concentration at which cell viability is inhibited by 50%), if possible.

PNT2 = experiment: MTT viability assay, normal prostate epithelial cells; assay type: cell-based, human; conditions: Homo sapiens, PNT2; normal prostate epithelial cells, reference drug, time not given; read-out: IC50
From the text: as §1, §2, §3

C8D1A = experiment: MTT viability assay, normal astrocytes C8D1A; assay type: cell-based, murine; conditions: Mus musculus, C8-D1A; murine astrocytes, 24 h, reference drug
From the text: as §1, §2, §3

WM793 cells = system: WM793 cells; set-up: method as in PMID 34577645; conditions: WM793, reference drug, time not given; cited from earlier work
HepG2 cells = system: HepG2 cells; set-up: method as in PMID 40368021; conditions: HepG2, 24 h, reference drug; cited from earlier work
[1] = system: human non-cancerous skin cells; set-up: method as in PMID 34500657; conditions: 24 h, reference drug; cited from earlier work
FemX = system: FemX; set-up: method as in PMID 23203090; conditions: 72 h; cited from earlier work
518A2 = system: 518A2; set-up: method as in PMID 27936296; conditions: 518A2, 72 h, cited from earlier work

## COc1cccc2c1C(=O)c1c(O)c3c(c(O)c1C2=O)C[C@@](O)(C(=O)CO)C[C@@H]3O[C@H]1C[C@H](N)[C@H](O)[C@H](C)O1 [doxorubicin, reference compound]
CCD 841 CoN
  IC50: 2.25 µg/mL (≈ 4.14 µM)
PNT2
  IC50: 1.4 µg/mL (≈ 2.58 µM)
C8D1A
  IC50: 2.25 µg/mL (≈ 4.14 µM)
WM793 cells
  IC50: > 100 µg/mL
HepG2 cells
  IC50 (hepatotoxicity): 1.03 µg/mL (≈ 1.9 µM)
[1]
  IC50: 4.7 µg/mL (≈ 8.65 µM)

## CC(=O)c1c(O)c(C)c(O)c2c1OC1=CC(=O)C(C(C)=O)C(=O)C12C (stereo not drawn) [UA, Usnic acid]
FemX
  IC50: 12.72 µg/mL (≈ 36.9 µM)
518A2; recalculated from µM by the authors
  IC50: ≈ 2 µg/mL
518A2; read-out: IC50
  pIC50: 5.27

— PMC12298648, “An Evaluation of the Cytotoxicity and Safety Profile of Usnic Acid for a Broad Panel of Human Cancers and Normal Cells with Respect to Its Enantiospecificity” (Molecules, 2025)
